In patent US10988523B2, “Modified lipidated Relaxin B chain peptides and their therapeutic use” (Sanofi, priority 2018, dated 2021):
*1 amine or outer side, *2 acyl side, *3 side chain or, on linkers, in order; H or OH if unused. Where a SMILES comes first, the peptide text is derived from it. Side-chain parts run from the residue outwards. [ ]: non-standard residue; d: D form. The star is where a group is joined. PEG12 = NCCOCCOCCOCCOCCOCCOCCOCCOCCOCCOCCOCCOCCC(=O)O; γGlu = O=C(O)[C@H](CCC(=O)[*:2])N[*:1]; Stearoyl = CCCCCCCCCCCCCCCCCC(=O)*; Palmitoyl = CCCCCCCCCCCCCCCC(=O)*; αMeK = C[C@](N)(CCCCN)C(=O)O; Nle = CCCC[C@H](N)C(=O)O; AEEA = NCCOCCOCC(=O)O; Aib = CC(C)(N)C(=O)O

Target: T1, RXFP1 (Homo sapiens, UniProt Q9HBX9)
T1 construct: OVCAR5 cells expressing endogenous RXFP1; endogenous in cells; host or cells: OVCAR5 cells
T1 sequence (Q9HBX9 1-757): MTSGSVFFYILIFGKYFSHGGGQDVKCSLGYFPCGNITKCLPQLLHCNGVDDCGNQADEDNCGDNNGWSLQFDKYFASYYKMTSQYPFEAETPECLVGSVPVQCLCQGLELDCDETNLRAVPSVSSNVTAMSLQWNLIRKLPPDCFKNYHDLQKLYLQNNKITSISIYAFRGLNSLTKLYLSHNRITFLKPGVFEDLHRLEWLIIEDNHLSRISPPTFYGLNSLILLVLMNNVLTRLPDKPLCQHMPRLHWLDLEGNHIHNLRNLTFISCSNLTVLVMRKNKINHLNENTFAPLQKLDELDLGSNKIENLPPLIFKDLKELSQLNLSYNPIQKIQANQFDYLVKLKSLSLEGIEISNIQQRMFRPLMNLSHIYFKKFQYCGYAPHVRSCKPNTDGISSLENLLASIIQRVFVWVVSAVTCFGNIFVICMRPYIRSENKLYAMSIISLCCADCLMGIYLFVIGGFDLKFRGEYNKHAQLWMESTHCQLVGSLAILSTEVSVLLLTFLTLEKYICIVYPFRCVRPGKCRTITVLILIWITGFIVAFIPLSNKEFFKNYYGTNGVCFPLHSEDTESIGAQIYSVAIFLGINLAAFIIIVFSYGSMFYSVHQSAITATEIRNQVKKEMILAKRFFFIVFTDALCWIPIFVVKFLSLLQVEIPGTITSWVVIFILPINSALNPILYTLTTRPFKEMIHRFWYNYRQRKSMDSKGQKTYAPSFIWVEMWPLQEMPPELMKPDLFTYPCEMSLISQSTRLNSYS
Experiment: OVCAR5 cAMP assay (HTRF), RXFP1 agonist activity
Assay type: cell-based
Details: for EC50: OVCAR5 cells, cAMP HTRF, read-out: EC50 (nM), OVCAR 5 cells (cAMP); for Emax: OVCAR-5, maximal cAMP relative to H2-relaxin maximum (100%), read-out: EMax, OVCAR 5 cells (cAMP)
Outline: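 OVCAR5 cells (endogenous RXFP1) pretreated 40 min at 37° C with 1 mM IBMX, then exposed to peptides in serum-free medium for 30 min at 37° C. Lysate cAMP read by HTRF; EC50 from variable-slope sigmoidal fit; Emax as % of H2-relaxin maximal cAMP in same run.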

Compound	EC50	Emax
CCCCCCCCCCCCCCCC(=O)N[C@@H](CCC(=O)N[C@@H](CCC(=O)N[C@@H](CCC(=O)NCCOCCOCC(=O)NCCOCCOCC(=O)NCCCC[C@H](NC(=O)[C@H](CCCCN)NC(=O)[C@H](CCCCN)NC(=O)[C@H](CCCNC(=N)N)NC(=O)C(C)(C)NC(=O)[C@H](CO)NC(=O)[C@H](Cc1c[nH]c2ccccc12)NC(=O)[C@@H](NC(=O)[C@H](CO)NC(=O)[C@H](CCCC)NC(=O)CNC(=O)[C@H](CCC(=O)O)NC(=O)C(C)(C)NC(=O)C(C)(C)NC(=O)[C@@H](NC(=O)[C@H](CCCCNC(C)=O)NC(=O)[C@H](C)NC(=O)[C@H](CCCNC(=N)N)NC(=O)[C@@H](NC(=O)[C@H](CCCCN)NC(=O)[C@H](CCC(=O)O)NC(=O)[C@H](CCCNC(=N)N)NC(=O)CNC(=O)[C@H](CCC(=O)O)NC(=O)[C@H](CC(C)C)NC(C)=O)C(C)C)[C@@H](C)CC)[C@@H](C)O)C(N)=O)C(=O)O)C(=O)O)C(=O)O [compound 60] (Ac-LEGREKVRAK(Ac)I[Aib][Aib]EG[Nle]STWS[Aib]RKKK([AEEA-AEEA-γGlu-γGlu-γGlu-Palmitoyl])-NH2)	0.11 nM	91%
CCCCCCCCCCCCCCCC(=O)N[C@@H](CCC(=O)N[C@@H](CCC(=O)N[C@@H](CCC(=O)NCCOCCOCC(=O)NCCOCCOCC(=O)NCCCC[C@H](NC(=O)[C@H](CCCCN)NC(=O)[C@H](CCCCN)NC(=O)[C@H](CCCNC(=N)N)NC(=O)C(C)(C)NC(=O)[C@H](CO)NC(=O)[C@H](Cc1c[nH]c2ccccc12)NC(=O)[C@@H](NC(=O)[C@H](CO)NC(=O)[C@H](CCCCNC(C)=O)NC(=O)CNC(=O)[C@H](CCC(=O)O)NC(=O)C(C)(C)NC(=O)C(C)(C)NC(=O)[C@@H](NC(=O)[C@H](CCCCNC(C)=O)NC(=O)[C@H](C)NC(=O)[C@H](CCCNC(=N)N)NC(=O)[C@@H](NC(=O)[C@H](CCCCN)NC(=O)[C@H](CCC(=O)O)NC(=O)[C@H](CCCNC(=N)N)NC(=O)CNC(=O)[C@H](CCC(=O)O)NC(=O)[C@H](CC(C)C)NC(C)=O)C(C)C)[C@@H](C)CC)[C@@H](C)O)C(N)=O)C(=O)O)C(=O)O)C(=O)O [compound 61] (Ac-LEGREKVRAK(Ac)I[Aib][Aib]EGK(Ac)STWS[Aib]RKKK([AEEA-AEEA-γGlu-γGlu-γGlu-Palmitoyl])-NH2)	0.17 nM	93%
CCCCCCCCCCCCCCCC(=O)N[C@@H](CCC(=O)N[C@@H](CCC(=O)N[C@@H](CCC(=O)NCCOCCOCC(=O)NCCOCCOCC(=O)NCCCC[C@H](NC(=O)[C@H](CCCCNC(C)=O)NC(=O)[C@H](CCCCN)NC(=O)[C@H](CCCNC(=N)N)NC(=O)C(C)(C)NC(=O)[C@H](CO)NC(=O)[C@H](Cc1c[nH]c2ccccc12)NC(=O)[C@@H](NC(=O)[C@H](CO)NC(=O)[C@H](CCCC)NC(=O)CNC(=O)[C@H](CCC(=O)O)NC(=O)C(C)(C)NC(=O)C(C)(C)NC(=O)[C@@H](NC(=O)[C@H](CCCCNC(C)=O)NC(=O)[C@H](C)NC(=O)[C@H](CCCNC(=N)N)NC(=O)[C@@H](NC(=O)[C@H](CCCCN)NC(=O)[C@H](CCC(=O)O)NC(=O)[C@H](CCCNC(=N)N)NC(=O)CNC(=O)[C@H](CCC(=O)O)NC(=O)[C@H](CC(C)C)NC(C)=O)C(C)C)[C@@H](C)CC)[C@@H](C)O)C(N)=O)C(=O)O)C(=O)O)C(=O)O [compound 62] (Ac-LEGREKVRAK(Ac)I[Aib][Aib]EG[Nle]STWS[Aib]RKK(Ac)K([AEEA-AEEA-γGlu-γGlu-γGlu-Palmitoyl])-NH2)		87%
CCCCCCCCCCCCCCCC(=O)N[C@@H](CCC(=O)N[C@@H](CCC(=O)N[C@@H](CCC(=O)NCCOCCOCC(=O)NCCOCCOCC(=O)NCCOCCOCC(=O)NCCOCCOCC(=O)NCCCC[C@H](NC(=O)[C@H](CCCCNC(C)=O)NC(=O)[C@H](CCCCN)NC(=O)[C@H](CCCNC(=N)N)NC(=O)C(C)(C)NC(=O)[C@H](CO)NC(=O)[C@H](Cc1c[nH]c2ccccc12)NC(=O)[C@@H](NC(=O)[C@H](CO)NC(=O)[C@H](CCCC)NC(=O)CNC(=O)[C@H](CCC(=O)O)NC(=O)C(C)(C)NC(=O)C(C)(C)NC(=O)[C@@H](NC(=O)[C@H](CCCCNC(C)=O)NC(=O)[C@H](C)NC(=O)[C@H](CCCNC(=N)N)NC(=O)[C@@H](NC(=O)[C@H](CCCCN)NC(=O)[C@H](CCC(=O)O)NC(=O)[C@H](CCCNC(=N)N)NC(=O)CNC(=O)[C@H](CCC(=O)O)NC(=O)[C@H](CC(C)C)NC(C)=O)C(C)C)[C@@H](C)CC)[C@@H](C)O)C(N)=O)C(=O)O)C(=O)O)C(=O)O [compound 64] (Ac-LEGREKVRAK(Ac)I[Aib][Aib]EG[Nle]STWS[Aib]RKK(Ac)K([AEEA-AEEA-AEEA-AEEA-γGlu-γGlu-γGlu-Palmitoyl])-NH2)	0.2 nM	81%
CCCCCCCCCCCCCCCC(=O)N[C@@H](CCC(=O)N[C@@H](CCC(=O)N[C@@H](CCC(=O)N[C@@H](CCC(=O)NCCOCCOCC(=O)NCCOCCOCC(=O)NCCOCCOCC(=O)NCCCC[C@H](NC(=O)[C@H](CCCCNC(C)=O)NC(=O)[C@H](CCCCN)NC(=O)[C@H](CCCNC(=N)N)NC(=O)[C@](C)(CCCCN)NC(=O)[C@H](CO)NC(=O)[C@H](Cc1c[nH]c2ccccc12)NC(=O)[C@@H](NC(=O)[C@H](CO)NC(=O)[C@H](CCCC)NC(=O)CNC(=O)[C@H](CCC(=O)O)NC(=O)C(C)(C)NC(=O)C(C)(C)NC(=O)[C@@H](NC(=O)[C@H](CCCCNC(C)=O)NC(=O)[C@H](C)NC(=O)[C@H](CCCNC(=N)N)NC(=O)[C@@H](NC(=O)[C@H](CCCCN)NC(=O)[C@H](CCC(=O)O)NC(=O)[C@H](CCCNC(=N)N)NC(=O)CNC(=O)[C@H](CCC(=O)O)NC(=O)[C@H](CC(C)C)NC(C)=O)C(C)C)[C@@H](C)CC)[C@@H](C)O)C(N)=O)C(=O)O)C(=O)O)C(=O)O)C(=O)O [compound 65] (Ac-LEGREKVRAK(Ac)I[Aib][Aib]EG[Nle]STWS[αMeK]RKK(Ac)K([AEEA-AEEA-AEEA-γGlu-γGlu-γGlu-γGlu-Palmitoyl])-NH2)	0.12 nM	93%
CCCCCCCCCCCCCCCC(=O)N[C@@H](CCC(=O)N[C@@H](CCC(=O)N[C@@H](CCC(=O)NCCOCCOCCOCCOCCOCCOCCOCCOCCOCCOCCOCCOCCC(=O)NCCCC[C@H](NC(=O)[C@H](CCCCNC(C)=O)NC(=O)[C@H](CCCCN)NC(=O)[C@H](CCCNC(=N)N)NC(=O)C(C)(C)NC(=O)[C@H](CO)NC(=O)[C@H](Cc1c[nH]c2ccccc12)NC(=O)[C@@H](NC(=O)[C@H](CO)NC(=O)[C@H](CCCC)NC(=O)CNC(=O)[C@H](CCC(=O)O)NC(=O)C(C)(C)NC(=O)C(C)(C)NC(=O)[C@@H](NC(=O)[C@H](CCCCNC(C)=O)NC(=O)[C@H](C)NC(=O)[C@H](CCCNC(=N)N)NC(=O)[C@@H](NC(=O)[C@H](CCCCN)NC(=O)[C@H](CCC(=O)O)NC(=O)[C@H](CCCNC(=N)N)NC(=O)CNC(=O)[C@H](CCC(=O)O)NC(=O)[C@H](CC(C)C)NC(C)=O)C(C)C)[C@@H](C)CC)[C@@H](C)O)C(N)=O)C(=O)O)C(=O)O)C(=O)O [compound 66] (Ac-LEGREKVRAK(Ac)I[Aib][Aib]EG[Nle]STWS[Aib]RKK(Ac)K([PEG12-γGlu-γGlu-γGlu-Palmitoyl])-NH2)		83%
CCCCCCCCCCCCCCCCCC(=O)N[C@@H](CCC(=O)N[C@@H](CCC(=O)N[C@@H](CCC(=O)NCCOCCOCC(=O)NCCOCCOCC(=O)NCCCC[C@H](NC(=O)[C@H](CCCCN)NC(=O)[C@H](CCCNC(=N)N)NC(=O)C(C)(C)NC(=O)[C@H](CO)NC(=O)[C@H](Cc1c[nH]c2ccccc12)NC(=O)[C@@H](NC(=O)[C@H](CO)NC(=O)[C@H](CCCC)NC(=O)CNC(=O)[C@H](CCC(=O)O)NC(=O)C(C)(C)NC(=O)C(C)(C)NC(=O)[C@@H](NC(=O)[C@H](CCC(N)=O)NC(=O)[C@H](C)NC(=O)[C@H](CCCNC(=N)N)NC(=O)[C@@H](NC(=O)[C@H](CCCCN)NC(=O)[C@H](CCC(=O)O)NC(=O)[C@H](CCCNC(=N)N)NC(=O)CNC(=O)[C@H](CCC(=O)O)NC(=O)[C@H](CC(C)C)NC(C)=O)C(C)C)[C@@H](C)CC)[C@@H](C)O)C(N)=O)C(=O)O)C(=O)O)C(=O)O [compound 67] (Ac-LEGREKVRAQI[Aib][Aib]EG[Nle]STWS[Aib]RKK([AEEA-AEEA-γGlu-γGlu-γGlu-Stearoyl])-NH2)		89%
CCCCCCCCCCCCCCCCCC(=O)N[C@@H](CCC(=O)N[C@@H](CCC(=O)N[C@@H](CCC(=O)NCCOCCOCC(=O)NCCOCCOCC(=O)NCCCC[C@H](NC(=O)[C@H](CCCCN)NC(=O)[C@H](CCCCN)NC(=O)[C@H](CCCNC(=N)N)NC(=O)C(C)(C)NC(=O)[C@H](CO)NC(=O)[C@H](Cc1c[nH]c2ccccc12)NC(=O)[C@@H](NC(=O)[C@H](CO)NC(=O)[C@H](CCC(=O)O)NC(=O)CNC(=O)[C@H](CCC(=O)O)NC(=O)C(C)(C)NC(=O)C(C)(C)NC(=O)[C@@H](NC(=O)[C@H](CCC(N)=O)NC(=O)[C@H](C)NC(=O)[C@H](CCCNC(=N)N)NC(=O)[C@@H](NC(=O)[C@H](CCCCN)NC(=O)[C@H](CCC(=O)O)NC(=O)[C@H](CCCNC(=N)N)NC(=O)CNC(=O)[C@H](CCC(=O)O)NC(=O)[C@H](CC(C)C)NC(C)=O)C(C)C)[C@@H](C)CC)[C@@H](C)O)C(N)=O)C(=O)O)C(=O)O)C(=O)O [compound 68] (Ac-LEGREKVRAQI[Aib][Aib]EGESTWS[Aib]RKKK([AEEA-AEEA-γGlu-γGlu-γGlu-Stearoyl])-NH2)		94%
